Biological target: BACE (Homo sapiens, UniProt P56817)
Experiment: Ki Determination for the Inhibition of BACE (FS-1 peptide fluorescence cleavage assay)
Assay type: biochemical
Settings: apparent Ki; 50 nM BACE, 10 μM FS-1 substrate, 0.1M sodium acetate pH 4.5
How it was run: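 Human BACE (50 nM) was preincubated 15 min at room temperature with compound (2% DMSO) in 0.1 M sodium acetate pH 4.5, then 10 μM FS-1 peptide was added. Cleavage was followed by fluorescence (ex 355/em 495 nm), and apparent Ki came from fitting to the integrated competitive tight-binding inhibition equation.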

BACE, sequence (P56817 46-501): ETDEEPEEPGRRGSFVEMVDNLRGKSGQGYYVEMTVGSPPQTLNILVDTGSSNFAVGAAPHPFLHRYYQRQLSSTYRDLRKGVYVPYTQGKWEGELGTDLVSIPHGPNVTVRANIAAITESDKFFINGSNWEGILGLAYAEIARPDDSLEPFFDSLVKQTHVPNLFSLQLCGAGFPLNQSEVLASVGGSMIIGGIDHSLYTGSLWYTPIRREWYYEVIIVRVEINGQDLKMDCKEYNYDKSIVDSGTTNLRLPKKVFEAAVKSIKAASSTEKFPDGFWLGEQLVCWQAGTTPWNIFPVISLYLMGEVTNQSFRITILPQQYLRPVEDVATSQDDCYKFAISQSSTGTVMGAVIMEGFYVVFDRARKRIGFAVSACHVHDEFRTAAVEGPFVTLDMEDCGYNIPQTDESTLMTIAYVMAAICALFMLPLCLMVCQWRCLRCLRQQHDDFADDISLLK

Compound	Ki [µM]
FC(F)(F)c1ccccc1OCc1cc(-c2ccccc2C(F)(F)F)ccc1C1=CCNCC1 [Compound 375, 4-[2′-Trifluoromethyl-3-(2-trifluoromethyl-phenoxymethyl)-biphenyl-4-yl]-1,2,3,6-tetrahydro-pyridine]	< 3
c1ccc(-c2ccc(N3CCNCC3)c(NCc3ccc4ccccc4c3)c2)cc1 [Compound 165, Naphthalen-2-ylmethyl-(4-piperazin-1-yl-biphenyl-3-yl)-amine]	< 3
N#Cc1ccccc1-c1ccc(COc2ccc3c(c2)c2c(n3Cc3ccc4ccccc4c3)CNCC2)cc1 [Compound 531, 4′-(9-Naphthalen-2-ylmethyl-2,3,4,9-tetrahydro-1H-b-carbolin-6-yloxymethyl)-biphenyl-2-carbonitrile]	< 3
O=C(Nc1cc(-c2cc(F)c(S(=O)(=O)NCc3ccccc3)cc2F)ccc1N1CCNCC1)c1cccc2ccccc12 [Compound 164, Naphthalene-1-carboxylic acid (4′-benzylsulfamoyl-2′,5′-difluoro-4-piperazin-1-yl-biphenyl-3-yl)-amide]	3 to 30
O=C(Nc1cc(F)c(-c2ccoc2)cc1N1CCNCC1)c1cccc2ccccc12 [Compound 160, Naphthalene-1-carboxylic acid (5-fluoro-4-furan-3-yl-2-piperazin-1-yl-phenyl)-amide]	3 to 30
OCc1ccccc1-c1ccc(C2=CCNCC2)c(COc2ccccc2C(F)(F)F)c1 [Compound 378, [4′-(1,2,3,6-Tetrahydro-pyridin-4-yl)-3′-(2-trifluoromethyl-phenoxymethyl)-biphenyl-2-yl]-methanol]	3 to 30
FC(F)(F)c1ccccc1OCc1cc(-c2cccs2)c(COc2ccccc2C(F)(F)F)cc1C1=CCNCC1 [Compound 345, 4-[4-Thiophen-2-yl-2,5-bis-(2-trifluoromethyl-phenoxymethyl)-phenyl]-1,2,3,6-tetrahydro-pyridine]	< 3
COc1cccc(-c2ccc(N3CCNCC3)c(NC(=O)c3cccc4ccccc34)c2)c1 [Compound 119, Naphthalene-1-carboxylic acid (3′-methoxy-4-piperazin-1-yl-biphenyl-3-yl)-amide]	> 30
FC(F)(F)c1ccc(N2CCNCC2)c(NCc2ccc3ccccc3c2)c1 [Compound 100, Naphthalen-2-ylmethyl-(2-piperazin-1-yl-5-trifluoromethyl-phenyl)-amine]	3 to 30
O=C(NCc1ccccc1OC(F)(F)F)C1CNCCC1c1ccc(COc2ccccc2C(F)(F)F)cc1 (stereo not shown) [Compound 208, 4-[4-(2-Trifluoromethyl-phenoxymethyl)-phenyl]-piperidine-3-carboxylic acid 2-trifluoromethoxy-benzylamide]	> 30
COc1cc(COc2ccc3c(c2)c2c(n3C(=O)c3cccc4ccccc34)CNCC2)cc(OC)c1 [Compound 526, [6-(3,5-Dimethoxy-benzyloxy)-1,2,3,4-tetrahydro-b-carbolin-9-yl]-naphthalen-1-yl-methanone]	< 3

Further lines, results first:

Ki [µM]	Compound
< 3	Nc1ccc(-c2cc(COc3ccccc3C(F)(F)F)c(C3=CCNCC3)cc2COc2ccccc2C(F)(F)F)cc1 [Compound 359, 4′-(1,2,3,6-Tetrahydro-pyridin-4-yl)-2′,5′-bis-(2-trifluoromethyl-phenoxymethyl)-biphenyl-4-ylamine]
3 to 30	O=C(NCC1CNCCC1c1ccc(COc2ccccc2C(F)(F)F)cc1)c1ccc2ccccc2c1 (stereo not shown) [Compound 222, Naphthalene-2-carboxylic acid {4-[4-(2-trifluoromethyl-phenoxymethyl)-phenyl]-piperidin-3-ylmethyl}-amide]
< 3	Oc1ccc(-c2cc(COc3ccccc3C(F)(F)F)c(C3=CCNCC3)cc2COc2ccccc2C(F)(F)F)cc1 [Compound 352, 4′-(1,2,3,6-Tetrahydro-pyridin-4-yl)-2′,5′-bis-(2-trifluoromethyl-phenoxymethyl)-biphenyl-4-ol]
< 3	Cc1c(COc2ccc3c(c2)c2c(n3C(=O)c3cccc4ccccc34)CNCC2)cccc1C(F)(F)F [Compound 523, [6-(2-Methyl-3-trifluoromethyl-benzyloxy)-1,2,3,4-tetrahydro-b-carbolin-9-yl]-naphthalen-1-yl-methanone]
< 3	FC(F)(F)c1ccccc1OCc1cc(-c2ccccc2)c(COc2ccccc2C(F)(F)F)cc1C1=CCNCC1 [Compound 306, 4-[2,5-Bis-(2-trifluoromethyl-phenoxymethyl)-biphenyl-4-yl]-1,2,3,6-tetrahydro-pyridine]
< 3	FC(F)(F)c1ccccc1OCc1cc(-c2ccoc2)c(COc2ccccc2C(F)(F)F)cc1C1=CCNCC1 [Compound 343, 4-[4-Furan-3-yl-2,5-bis-(2-trifluoromethyl-phenoxymethyl)-phenyl]-1,2,3,6-tetrahydro-pyridine]
< 3	Fc1ccccc1-c1ccc(C2=CCNCC2)c(COc2ccccc2C(F)(F)F)c1 [Compound 372, 4-[2′-Fluoro-3-(2-trifluoromethyl-phenoxymethyl)-biphenyl-4-yl]-1,2,3,6-tetrahydro-pyridine]
3 to 30	COc1cc(NC(=O)c2ccc(COc3ccccc3C(F)(F)F)cc2C2=CCNCC2)cc2ccccc12 [Compound 309, N-(4-Methoxy-naphthalen-2-yl)-2-(1,2,3,6-tetrahydro-pyridin-4-yl)-4-(2-trifluoromethyl-phenoxyraethyl)-benzamide]

— patent US20030095958A1, “Inhibitors of bace” (priority 2001, published 2003)
